One block for each compound: values may come before it.
Experiments:
human recombinant MAGL = molecular target: T1, human recombinant MAGL (Homo sapiens, UniProt Q99685); type: biochemical; settings: for MAGL inhibition at 10 μM: highest test concentration
T1 sequence (Q99685 1-303): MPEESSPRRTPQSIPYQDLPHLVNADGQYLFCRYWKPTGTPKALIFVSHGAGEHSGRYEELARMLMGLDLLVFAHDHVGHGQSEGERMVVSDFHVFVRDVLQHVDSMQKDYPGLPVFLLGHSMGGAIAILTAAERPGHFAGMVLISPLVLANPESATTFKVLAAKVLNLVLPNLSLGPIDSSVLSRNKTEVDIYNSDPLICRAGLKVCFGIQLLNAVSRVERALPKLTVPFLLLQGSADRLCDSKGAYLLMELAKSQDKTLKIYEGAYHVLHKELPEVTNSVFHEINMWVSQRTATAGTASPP

[1] = molecular target: T2, fatty acid amide hydrolase (FAAH), rat brain homogenate (Rattus norvegicus, UniProt P97612); type: biochemical; settings: for FAAH inhibition at 10 μM: highest test concentration; for inhibition at 10 µM: read-out: FAAH inhibition at 10 μM, 10 μM, highest test concentration
T2 sequence (P97612 1-579): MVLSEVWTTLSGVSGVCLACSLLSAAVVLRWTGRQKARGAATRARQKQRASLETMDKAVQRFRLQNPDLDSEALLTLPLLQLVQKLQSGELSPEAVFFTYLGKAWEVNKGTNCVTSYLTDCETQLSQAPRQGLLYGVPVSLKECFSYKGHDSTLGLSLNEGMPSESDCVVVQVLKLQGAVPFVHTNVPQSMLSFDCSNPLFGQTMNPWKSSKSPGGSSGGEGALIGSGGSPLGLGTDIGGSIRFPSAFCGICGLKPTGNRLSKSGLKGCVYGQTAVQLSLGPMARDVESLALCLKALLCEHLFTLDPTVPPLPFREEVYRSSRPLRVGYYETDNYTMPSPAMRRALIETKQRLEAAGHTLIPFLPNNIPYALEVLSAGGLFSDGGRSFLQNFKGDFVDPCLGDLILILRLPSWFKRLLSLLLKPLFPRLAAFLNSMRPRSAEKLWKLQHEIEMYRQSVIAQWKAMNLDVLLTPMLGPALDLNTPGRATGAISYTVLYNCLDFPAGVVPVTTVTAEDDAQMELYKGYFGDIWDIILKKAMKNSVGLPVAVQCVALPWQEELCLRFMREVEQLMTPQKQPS

[2] = Chemical stability in aqueous solution; type: physicochemical; settings: percent of parent remaining after 60 min at 37 °C; mean ± SD, n=3
[3] = Metabolic stability in porcine liver S9 fraction; type: in vitro ADME; settings: for Porcine liver S9 fraction Stability: percent of parent remaining after 30 min at 37 °C, mean ± SD, n=3
[4] = Metabolic stability in porcine blood plasma; type: in vitro ADME; settings: for Porcine blood plasma Stability: percent of parent remaining after 30 min at 37 °C, mean ± SD, n=3
[5] = molecular target: butyrylcholinesterase (BuChE) (Equus caballus, UniProt P81908); experiment: Inhibition of BuChE, release of benzoic acid from benzoylcholine; type: biochemical, horse
Sequence of butyrylcholinesterase (BuChE) (P81908 whole entry): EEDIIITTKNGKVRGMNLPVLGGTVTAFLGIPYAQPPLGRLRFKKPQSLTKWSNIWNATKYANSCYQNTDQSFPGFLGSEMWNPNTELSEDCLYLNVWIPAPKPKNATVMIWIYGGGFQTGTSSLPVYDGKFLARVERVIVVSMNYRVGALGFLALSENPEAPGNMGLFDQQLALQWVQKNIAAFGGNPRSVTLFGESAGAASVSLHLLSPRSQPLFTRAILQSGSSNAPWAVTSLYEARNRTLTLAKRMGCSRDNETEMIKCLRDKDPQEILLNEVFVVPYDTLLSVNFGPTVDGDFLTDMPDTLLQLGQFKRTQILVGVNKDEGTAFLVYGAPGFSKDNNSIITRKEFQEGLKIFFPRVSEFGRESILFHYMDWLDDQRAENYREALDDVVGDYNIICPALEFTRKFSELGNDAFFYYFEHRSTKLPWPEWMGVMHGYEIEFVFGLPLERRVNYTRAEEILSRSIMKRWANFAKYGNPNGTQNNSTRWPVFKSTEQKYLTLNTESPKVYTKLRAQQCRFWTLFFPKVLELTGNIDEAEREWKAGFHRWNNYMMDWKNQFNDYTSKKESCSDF

[6] = Thermodynamic aqueous solubility; type: physicochemical; settings: PBS pH 7.4, shaken 20 h, 20 °C; mean ± SD
Caco‐2 cell permeability = settings: human, Caco-2, pH 7.4

SMILES: O=C(NCCCCCn1ccc2ccc(F)cc21)Oc1ccccc1 [Compound 6, phenyl N‐[5‐(6‐fluoroindol‐1‐yl)pentyl]carbamate]
- MAGL inhibition at 10 μM (human recombinant MAGL): no inhibition

SMILES: O=C(NCCCCCn1ccc2ccc(F)cc21)OC(C(F)(F)F)C(F)(F)F [Compound 11, 1,1,1,3,3,3‐Hexafluoropropan‐2‐yl N‐[5‐(6‐fluoroindol‐1‐yl)pentyl]carbamate]
- IC50 [1]: 740 nM
- PBS‐buffer pH 7.4 Stability [2]: 95±4%
- Porcine liver S9 fraction Stability [3]: 72±5%
- Porcine blood plasma Stability [4]: 86±9%
- IC50 [5]: 3500 nM

SMILES: O=C(NCCCCCCn1ccc2ccc(F)cc21)OC(C(F)(F)F)C(F)(F)F [Compound 13, 1,1,1,3,3,3‐Hexafluoropropan‐2‐yl N‐[6‐(6‐fluoroindol‐1‐yl)hexyl]carbamate]
- IC50 [1]: 770 nM
- PBS‐buffer pH 7.4 Stability [2]: 95±3%
- Porcine liver S9 fraction Stability [3]: 69±5%
- Porcine blood plasma Stability [4]: 79±8%
- IC50 [5]: 1800 nM

SMILES: O=C(NCCCCCCCn1ccc2ccc(F)cc21)OC(C(F)(F)F)C(F)(F)F [Compound 15]
- IC50 [1]: 1000 nM

SMILES: O=C(OC(C(F)(F)F)C(F)(F)F)N1CCC(Cn2ccc3ccc(F)cc32)CC1 [Compound 20, 1,1,1,3,3,3‐Hexafluoropropan‐2‐yl 4‐[(6‐fluoroindol‐1‐yl)methyl]piperidine‐1‐carboxylate]
- FAAH inhibition at 10 μM [1]: no inhibitory activity
- PBS‐buffer pH 7.4 Stability [2]: > 95%
- Porcine liver S9 fraction Stability [3]: 75±3%
- Porcine blood plasma Stability [4]: 82±6%

SMILES: O=C(OC(C(F)(F)F)C(F)(F)F)N1CCC(CCn2ccc3ccc(F)cc32)CC1 [Compound 24, 1,1,1,3,3,3‐Hexafluoropropan‐2‐yl 4‐[2‐(6‐fluoroindol‐1‐yl)ethyl]piperidine‐1‐carboxylate]
- IC50 [1]: 1000 nM
- PBS‐buffer pH 7.4 Stability [2]: 93±1%
- Porcine liver S9 fraction Stability [3]: 68±7%
- Porcine blood plasma Stability [4]: 86±7%

SMILES: CN(CCCCCn1ccc2ccc(F)cc21)C(=O)OC(C(F)(F)F)C(F)(F)F [Compound 35, 1,1,1,3,3,3‐Hexafluoropropan‐2‐yl N‐methyl‐N‐[5‐(6‐fluoroindol‐1‐yl)pentyl]carbamate]
- inhibition at 10 µM [1]: ~30%
- inhibition at 10 µM (human recombinant MAGL; read-out: MAGL inhibition at 10 μM): ~30%

SMILES: CCN(CCCCCn1ccc2ccc(F)cc21)C(=O)OC(C(F)(F)F)C(F)(F)F [Compound 38, 1,1,1,3,3,3‐Hexafluoropropan‐2‐yl N‐ethyl‐N‐[5‐(6‐fluoroindol‐1‐yl)pentyl]carbamate]
- FAAH inhibition at 10 μM [1]: inactive
- MAGL inhibition at 10 μM (human recombinant MAGL): inactive

SMILES: CC(C)N(CCCCCn1ccc2ccc(F)cc21)C(=O)OC(C(F)(F)F)C(F)(F)F [Compound 40]
- FAAH inhibition at 10 μM [1]: inactive
- MAGL inhibition at 10 μM (human recombinant MAGL): inactive

SMILES: O=C(OC(C(F)(F)F)C(F)(F)F)N(CCCCCn1ccc2ccc(F)cc21)C1CC1 [Compound 42]
- FAAH inhibition at 10 μM [1]: inactive
- MAGL inhibition at 10 μM (human recombinant MAGL): inactive

SMILES: O=C(OC(C(F)(F)F)C(F)(F)F)N1CCC(Cn2ccc3ccccc32)CC1 [Compound 45]
- FAAH inhibition at 10 μM [1]: no inhibitory activity

SMILES: O=C(OC(C(F)(F)F)C(F)(F)F)N1CCC(Cn2ccc3c(F)cccc32)CC1 [Compound 48]
- FAAH inhibition at 10 μM [1]: no inhibitory activity

SMILES: COc1ccc2c(ccn2CC2CCN(C(=O)OC(C(F)(F)F)C(F)(F)F)CC2)c1 [Compound 60]
- IC50 [1]: > 10000 nM
- inhibition at 10 µM [1]: ~25%

SMILES: N#Cc1ccc2c(ccn2CC2CCN(C(=O)OC(C(F)(F)F)C(F)(F)F)CC2)c1 [Compound 63]
- IC50 [1]: > 10000 nM
- inhibition at 10 µM [1]: ~25%

SMILES: COc1ccc2c(ccn2CCC2CCN(C(=O)OC(C(F)(F)F)C(F)(F)F)CC2)c1 [Compound 84]
- IC50 [1]: 8300 nM

SMILES: N#Cc1ccc2c(ccn2CCC2CCN(C(=O)OC(C(F)(F)F)C(F)(F)F)CC2)c1 [Compound 87]
- IC50 [1]: > 10000 nM

SMILES: O=C(OC(C(F)(F)F)C(F)(F)F)N1CCC(CCn2cnc3ccccc32)CC1 [Compound 101, 1,1,1,3,3,3‐Hexafluoropropan‐2‐yl 4‐[2‐(benzimidazol‐1‐yl)ethyl]piperidine‐1‐carboxylate]
- IC50 [1]: 1000 nM
- PBS‐buffer pH 7.4 Stability [2]: > 95%
- Porcine liver S9 fraction Stability [3]: 82±7%
- Porcine blood plasma Stability [4]: 93±5%
- Aqueous solubility pH 7.4 [6]: 6.1±0.5 μg/mL
- Papp A→B at 2 h, 10 µM (Caco‐2 cell permeability): 12.6 ± 1 ×10⁻⁶ cm/s

SMILES: O=C(OC(C(F)(F)F)C(F)(F)F)N1CCC(CCn2nnc3ccccc32)CC1 [Compound 104]
- IC50 [1]: > 10000 nM

SMILES: O=C(OC(C(F)(F)F)C(F)(F)F)N1CCC(Cn2cnc3ccccc32)CC1 [Compound 122]
- FAAH inhibition at 10 μM [1]: ineffective

SMILES: O=C(OC(C(F)(F)F)C(F)(F)F)N1CCC(Cn2ccc3cccnc32)CC1 [Compound 125, 1,1,1,3,3,3‐Hexafluoropropan‐2‐yl 4‐[(7‐azaindol‐1‐yl)methyl]piperidine‐1‐carboxylate]
- FAAH inhibition at 10 μM [1]: ineffective
- PBS‐buffer pH 7.4 Stability [2]: 92±7%
- Porcine liver S9 fraction Stability [3]: 75±8%
- Porcine blood plasma Stability [4]: 79±6%
- Papp A→B at 2 h, 10 µM (Caco‐2 cell permeability): 10 ×10⁻⁶ cm/s

SMILES: NC(=O)c1cccc(-c2cccc(OC(=O)NC3CCCCC3)c2)c1 [URB597, reference compound]
- PBS‐buffer pH 7.4 Stability [2]: > 95%
- Porcine liver S9 fraction Stability [3]: 80±4%

SMILES: CCCc1nc(C(C)(C)O)c(C(=O)OCc2oc(=O)oc2C)n1Cc1ccc(-c2ccccc2-c2nnn[nH]2)cc1 [olmesartan medoxomil, reference compound]
- Hydrolysis in porcine blood plasma ([4]; under the conditions of the stability assay): almost quantitatively hydrolyzed

SMILES: CCOC(=O)C1=C[C@@H](OC(CC)CC)[C@H](NC(C)=O)[C@@H](N)C1 [oseltamivir, reference compound]
- Degradation in porcine liver homogenate ([3]; percent degraded under the conditions of the stability assay): approximately 90%

The next lines start with the values.

- IC50 [1]: 6300 nM
SMILES: O=C(OC(C(F)(F)F)C(F)(F)F)N1CCC(CCCn2ccc3ccc(F)cc32)CC1 [Compound 28]

- IC50 [1]: 2800 nM
SMILES: O=C(OC(C(F)(F)F)C(F)(F)F)N1CCC(CCCCn2ccc3ccc(F)cc32)CC1 [Compound 32]

- FAAH inhibition at 10 μM [1]: no inhibitory activity
SMILES: O=C(OC(C(F)(F)F)C(F)(F)F)N1CCC(Cn2ccc3cccc(F)c32)CC1 [Compound 54]

- IC50 [1]: > 10000 nM
- inhibition at 10 µM [1]: ~25%
SMILES: Cc1ccc2c(ccn2CC2CCN(C(=O)OC(C(F)(F)F)C(F)(F)F)CC2)c1 [Compound 57]

- IC50 [1]: 2100 nM
SMILES: O=C(OC(C(F)(F)F)C(F)(F)F)N1CCC(CCn2ccc3ccccc32)CC1 [Compound 66]

- IC50 [1]: 2500 nM
SMILES: O=C(OC(C(F)(F)F)C(F)(F)F)N1CCC(CCn2ccc3c(F)cccc32)CC1 [Compound 69]

- IC50 [1]: 2800 nM
SMILES: O=C(OC(C(F)(F)F)C(F)(F)F)N1CCC(CCn2ccc3cc(F)ccc32)CC1 [Compound 72]

- IC50 [1]: 1200 nM
SMILES: O=C(OC(C(F)(F)F)C(F)(F)F)N1CCC(CCn2ccc3cccc(F)c32)CC1 [Compound 75]

- IC50 [1]: 7500 nM
SMILES: O=C(OC(C(F)(F)F)C(F)(F)F)N1CCC(CCn2ccc3cc(Cl)ccc32)CC1 [Compound 78]

- IC50 [1]: > 10000 nM
SMILES: Cc1ccc2c(ccn2CCC2CCN(C(=O)OC(C(F)(F)F)C(F)(F)F)CC2)c1 [Compound 81]

- IC50 [1]: 2600 nM
- Decrease of activity towards FAAH relative to lead structure 24 (factor) ([1]; ratio of IC50 values): ~2.5
- Decrease of activity towards MAGL relative to lead structure 24 (factor) (human recombinant MAGL; ratio of IC50 values): about 1.5
SMILES: O=C(OC(C(F)(F)F)C(F)(F)F)N1CCN(CCn2ccc3ccc(F)cc32)CC1 [Compound 92, 1,1,1,3,3,3‐Hexafluoropropan‐2‐yl 4‐[2‐(6‐fluoroindol‐1‐yl)ethyl]piperazine‐1‐carboxylate]
